Values of other authors in patent publication US8728493B2, “Polymer based compositions and conjugates of non-steroidal anti-inflammatory drugs” (Nektar Therapeutics, priority 2005, dated 2014).

Conditions: non-conjugated drug; conditions not stated

Compound: O=C(c1ccccc1)c1ccc2n1CCC2C(=O)O (stereo not shown) [non-conjugated ketorolac, ketorolac]
- half-life of non-conjugated ketorolac: approximately 2 hours
